Test [1] has as its system DNA topoisomerase 1 (Bos taurus). As to the kind of experiment: Ratio of DNA relaxation times by topoisomerase in presence of 9 uM of compound (t1/e(+drug) / t 1/e(-drug)).
Test [2] shares this test system. As to the kind of experiment: Ratio of DNA relaxation times by topoisomerase in presence of 2 uM of compound (t1/e(+drug) / t 1/e(-drug)).
Test [3] shares this test system. Description: Ratio of DNA relaxation times by topoisomerase in presence of 20 uM of compound (t1/e(+drug) / t 1/e(-drug)); Initial complete inhibition.
The test system is the same in test [4]. Description: Ratio of DNA relaxation times by topoisomerase in presence of 20 uM of compound (t1/e(+drug) / t 1/e(-drug)); Complete inhibition.
Test [5] deals with DNA. Description: Binding constant was measured for DNA binding at 20 uM concentration.
For test [6], the system named is DNA topoisomerase 1 (Bos taurus). Description: Ratio of DNA relaxation times by topoisomerase in presence of 18 uM of compound (t1/e(+drug) / t 1/e(-drug)).
Test [7] has the same test system. As to the kind of experiment: Ratio of DNA relaxation times by topoisomerase in presence of 17 uM of compound (t1/e(+drug) / t 1/e(-drug)); Initial complete inhibition.
Test [8] has as its system DNA. As to the kind of experiment: Binding constant was measured for DNA binding at 17 uM concentration.

In the case of `COc1cccc2c1C(=O)c1c(O)c3c(c(O)c1C2=O)C[C@@](O)(C(C)=O)C[C@@H]3OC1CC(O)C(CC2CC(O)C(CC3CCC(=O)C(C)O3)CO2)C(C)O1` (stereo not given in full), the Ratio in test [1] was 1.4; in test [2], 0.92.

For the compound `COc1cccc2c1C(=O)c1c(O)c3c(c(O)c1C2=O)C[C@@](O)(C(C)=O)C[C@@H]3OC1OC(C)C(CC2CC(O)C(CC3CCC(=O)C(C)O3)CO2)C(O)C1I` (stereo not given in full), the results for the Ratio entry in test [3] and in test [2] were “Initial complete inhibition” and 1.4, respectively.

With `COc1cccc2c1C(=O)c1c(O)c3c(c(O)c1C2=O)C[C@@](O)(C(C)=O)C[C@@H]3OC1OC(c2ccccc2)C(O)C(O)C1I` (stereo not given in full), the Ratio entry in test [4] is “Complete inhibition”; in test [2] it was 3.5. This compound also showed a Ka1 with DNA [5] of 400.

For the compound `COc1cccc2c1C(=O)c1c(O)c3c(c(O)c1C2=O)C[C@@](O)(C(C)=O)C[C@@H]3OC1OC(C)C(O)C(O)C1I` (stereo in doubt; 2), the results for the Ratio result in test [4] and in test [2] were “Complete inhibition” and 2, respectively. This compound returned a Ka1 with DNA [5] of 120.

Consider `COc1cccc2c1C(=O)c1c(O)c3c(c(O)c1C2=O)C[C@@](O)(C(C)=O)C[C@@H]3OC1OC(C)C(O)C(O)C1I` (stereo in doubt; form 1), for which the values for the Ratio in test [6] and in test [2] were 1 and 0.76, respectively.

Consider `COc1cccc2c1C(=O)c1c(O)c3c(c(O)c1C2=O)C[C@@](O)(C(C)=O)C[C@@H]3OC1OC(C)C(O)C(O)C1I` (stereo in doubt; form 2), for which the results for the Ratio entry in test [7] and in test [2] were “Complete inhibition” and 1.5, respectively. The Ka1 in the test with DNA [8] stood at 5.

The record behind these values is ChEMBL document CHEMBL1127472, “Inhibition of topoisomerase I by anthracycline antibiotics: evidence for general inhibition of topoisomerase I by DNA-binding agents” (J Med Chem, 1994).
